Assay results: PubChem BioAssay (NCI)
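Exposure lasted 48 hours, with cells grown in 96-well plates and compounds tested at five concentrations. GI50: concentration for 50% inhibition of growth. TGI: total growth inhibition.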

What was measured:
Test in all cases: NCI anticancer screen, dose series, 48 h; in the data active means GI50 below about 0.43 µM; inactive means the rest
OVCAR-3 ovarian = test system: OVCAR-3 ovarian
MDA-MB-435 = test system: MDA-MB-435
SN12C renal = test system: SN12C renal
SK-MEL-2 melanoma = test system: SK-MEL-2 melanoma
MOLT-4 leukemia = test system: MOLT-4 leukemia
SNB-75 CNS = test system: SNB-75 CNS
MALME-3M melanoma = test system: MALME-3M melanoma
RXF 393 renal = test system: RXF 393 renal
SW-620 colon = test system: SW-620 colon
SR leukemia = test system: SR leukemia
SK-MEL-5 melanoma = test system: SK-MEL-5 melanoma
CCRF-CEM leukemia = test system: CCRF-CEM leukemia
TK-10 renal = test system: TK-10 renal
UO-31 renal = test system: UO-31 renal
KM12 colon = test system: KM12 colon
DU-145 prostate = test system: DU-145 prostate
M14 melanoma = test system: M14 melanoma
MDA-MB-231 breast = test system: MDA-MB-231 breast
UACC-257 melanoma = test system: UACC-257 melanoma
NCI-H226 lung = test system: NCI-H226 lung
SF-268 CNS = test system: SF-268 CNS
MCF7 breast = test system: MCF7 breast
OVCAR-5 ovarian = test system: OVCAR-5 ovarian
A498 renal = test system: A498 renal
HCC-2998 colon = test system: HCC-2998 colon
BT-549 breast = test system: BT-549 breast
HCT-15 colon = test system: HCT-15 colon
COLO 205 colon = test system: COLO 205 colon
RPMI-8226 leukemia = test system: RPMI-8226 leukemia
SK-MEL-28 melanoma = test system: SK-MEL-28 melanoma
K-562 leukemia = test system: K-562 leukemia
HL-60(TB) leukemia = test system: HL-60(TB) leukemia
EKVX NSCLC = test system: EKVX NSCLC
HOP-62 NSCLC = test system: HOP-62 NSCLC
NCI/ADR-RES ovarian = test system: NCI/ADR-RES ovarian
HOP-92 NSCLC = test system: HOP-92 NSCLC
NCI-H460 lung = test system: NCI-H460 lung
HT29 colon = test system: HT29 colon
PC-3 prostate = test system: PC-3 prostate
IGROV1 ovarian = test system: IGROV1 ovarian
786-0 renal = test system: 786-0 renal
NCI-H23 lung = test system: NCI-H23 lung
HCT-116 colon = test system: HCT-116 colon
LOX IMVI melanoma = test system: LOX IMVI melanoma
U251 CNS = test system: U251 CNS
NCI-H522 lung = test system: NCI-H522 lung
CAKI-1 renal = test system: CAKI-1 renal
ACHN renal = test system: ACHN renal
UACC-62 melanoma = test system: UACC-62 melanoma
A549 NSCLC = test system: A549 NSCLC
T-47D breast = test system: T-47D breast
HS 578T breast = test system: HS 578T breast
SK-OV-3 ovarian = test system: SK-OV-3 ovarian
SNB-19 CNS = test system: SNB-19 CNS
SF-539 CNS = test system: SF-539 CNS
OVCAR-4 ovarian = test system: OVCAR-4 ovarian
SF-295 CNS = test system: SF-295 CNS
OVCAR-8 ovarian = test system: OVCAR-8 ovarian
MDA-N = test system: MDA-N

Fc1ccc(-c2ncn(C3CCNCC3)c2-c2ccnc(Oc3ccccc3)n2)cc1
18.6 µM: TGI (COLO 205 colon)
14.1 µM: TGI (SK-MEL-5 melanoma)
> 25 µM: TGI (OVCAR-3 ovarian) | TGI (MDA-MB-435) | TGI (SN12C renal) | TGI (SK-MEL-2 melanoma) | TGI (MOLT-4 leukemia) | TGI (SNB-75 CNS) | TGI (MALME-3M melanoma) | TGI (RXF 393 renal) | TGI (SW-620 colon) | TGI (CCRF-CEM leukemia) | TGI (TK-10 renal) | TGI (UO-31 renal) | TGI (KM12 colon) | TGI (DU-145 prostate) | TGI (M14 melanoma) | TGI (MDA-MB-231 breast) | TGI (UACC-257 melanoma) | TGI (NCI-H226 lung) | TGI (SF-268 CNS) | TGI (MCF7 breast) | TGI (OVCAR-5 ovarian) | TGI (A498 renal) | TGI (HCC-2998 colon) | TGI (BT-549 breast) | TGI (HCT-15 colon) | TGI (RPMI-8226 leukemia) | TGI (SK-MEL-28 melanoma) | TGI (K-562 leukemia) | TGI (HL-60(TB) leukemia) | TGI (EKVX NSCLC) | TGI (HOP-62 NSCLC) | TGI (NCI/ADR-RES ovarian) | TGI (HOP-92 NSCLC) | TGI (NCI-H460 lung) | TGI (HT29 colon) | TGI (PC-3 prostate) | TGI (IGROV1 ovarian) | TGI (786-0 renal) | TGI (NCI-H23 lung) | TGI (HCT-116 colon) | TGI (LOX IMVI melanoma) | TGI (U251 CNS) | TGI (NCI-H522 lung) | TGI (CAKI-1 renal) | TGI (ACHN renal) | TGI (UACC-62 melanoma) | TGI (A549 NSCLC) | TGI (T-47D breast) | TGI (HS 578T breast) | TGI (SK-OV-3 ovarian) | TGI (SNB-19 CNS) | TGI (SF-539 CNS) | TGI (OVCAR-4 ovarian) | TGI (SF-295 CNS) | TGI (OVCAR-8 ovarian)
inactive: GI50 (OVCAR-3 ovarian) > 25 µM | GI50 (MDA-MB-435) 17.8 µM | GI50 (SN12C renal) 18.5 µM | GI50 (SK-MEL-2 melanoma) > 25 µM | GI50 (MOLT-4 leukemia) 23.4 µM | GI50 (SNB-75 CNS) > 19.3 µM | GI50 (MALME-3M melanoma) 18.4 µM | GI50 (RXF 393 renal) 11.7 µM | GI50 (SW-620 colon) > 25 µM | GI50 (SR leukemia) 9.17 µM | GI50 (SK-MEL-5 melanoma) 4.87 µM | GI50 (CCRF-CEM leukemia) > 23.3 µM | GI50 (TK-10 renal) 21.2 µM | GI50 (UO-31 renal) 7.72 µM | GI50 (KM12 colon) > 25 µM | GI50 (DU-145 prostate) > 25 µM | GI50 (M14 melanoma) 9.86 µM | GI50 (MDA-MB-231 breast) 13.4 µM | GI50 (UACC-257 melanoma) 12.5 µM | GI50 (NCI-H226 lung) > 25 µM | GI50 (SF-268 CNS) > 25 µM | GI50 (MCF7 breast) 9.3 µM | GI50 (OVCAR-5 ovarian) 22.3 µM | GI50 (A498 renal) > 16.1 µM | GI50 (HCC-2998 colon) 12.8 µM | GI50 (BT-549 breast) 23 µM | GI50 (HCT-15 colon) > 22.8 µM | GI50 (COLO 205 colon) 7.32 µM | GI50 (RPMI-8226 leukemia) > 23.9 µM | GI50 (SK-MEL-28 melanoma) 16.9 µM | GI50 (K-562 leukemia) 10.8 µM | GI50 (HL-60(TB) leukemia) > 16.6 µM | GI50 (EKVX NSCLC) > 25 µM | GI50 (HOP-62 NSCLC) > 25 µM | GI50 (NCI/ADR-RES ovarian) > 25 µM | GI50 (HOP-92 NSCLC) 5.75 µM | GI50 (NCI-H460 lung) 16.1 µM | GI50 (HT29 colon) 8.3 µM | GI50 (PC-3 prostate) > 25 µM | GI50 (IGROV1 ovarian) 13.5 µM | GI50 (786-0 renal) > 22.5 µM | GI50 (NCI-H23 lung) > 25 µM | GI50 (HCT-116 colon) 14.8 µM | GI50 (LOX IMVI melanoma) > 15.8 µM | GI50 (U251 CNS) 15.2 µM | GI50 (NCI-H522 lung) > 25 µM | GI50 (CAKI-1 renal) 18.4 µM | GI50 (ACHN renal) 7.22 µM | GI50 (UACC-62 melanoma) > 25 µM | GI50 (A549 NSCLC) 20.1 µM | GI50 (T-47D breast) 17.3 µM | GI50 (HS 578T breast) > 13.1 µM | GI50 (SK-OV-3 ovarian) 20.1 µM | GI50 (SNB-19 CNS) > 25 µM | GI50 (SF-539 CNS) > 25 µM | GI50 (OVCAR-4 ovarian) > 25 µM | GI50 (SF-295 CNS) 18.2 µM | GI50 (OVCAR-8 ovarian) > 25 µM
> 20.1 µM: TGI (SR leukemia)

Cc1cc(=O)oc2c(CNC(C)C(=O)O)c(O)ccc12 (stereo not drawn)
> 100 µM: TGI (OVCAR-3 ovarian) | TGI (MDA-MB-435) | TGI (SN12C renal) | TGI (SK-MEL-2 melanoma) | TGI (MOLT-4 leukemia) | TGI (SNB-75 CNS) | TGI (MALME-3M melanoma) | TGI (RXF 393 renal) | TGI (SW-620 colon) | TGI (SR leukemia) | TGI (SK-MEL-5 melanoma) | TGI (CCRF-CEM leukemia) | TGI (TK-10 renal) | TGI (UO-31 renal) | TGI (KM12 colon) | TGI (DU-145 prostate) | TGI (M14 melanoma) | TGI (MDA-MB-231 breast) | TGI (UACC-257 melanoma) | TGI (NCI-H226 lung) | TGI (SF-268 CNS) | TGI (MCF7 breast) | TGI (OVCAR-5 ovarian) | TGI (HCC-2998 colon) | TGI (HCT-15 colon) | TGI (COLO 205 colon) | TGI (RPMI-8226 leukemia) | TGI (SK-MEL-28 melanoma) | TGI (K-562 leukemia) | TGI (MDA-N) | TGI (HL-60(TB) leukemia) | TGI (EKVX NSCLC) | TGI (HOP-62 NSCLC) | TGI (NCI/ADR-RES ovarian) | TGI (HOP-92 NSCLC) | TGI (NCI-H460 lung) | TGI (HT29 colon) | TGI (PC-3 prostate) | TGI (IGROV1 ovarian) | TGI (786-0 renal) | TGI (NCI-H23 lung) | TGI (HCT-116 colon) | TGI (LOX IMVI melanoma) | TGI (U251 CNS) | TGI (NCI-H522 lung) | TGI (CAKI-1 renal) | TGI (ACHN renal) | TGI (UACC-62 melanoma) | TGI (A549 NSCLC) | TGI (T-47D breast) | TGI (HS 578T breast) | TGI (SK-OV-3 ovarian) | TGI (SNB-19 CNS) | TGI (SF-539 CNS) | TGI (OVCAR-4 ovarian) | TGI (SF-295 CNS) | TGI (OVCAR-8 ovarian)

CC(=O)c1ccc(N2CCN(c3c(O)c4c(c(O)c3Cl)C(=O)C=CC4=O)CC2)cc1
9.44 µM: TGI (RXF 393 renal)
35.7 µM: TGI (SNB-19 CNS)
27.2 µM: TGI (786-0 renal)
4.57 µM: TGI (MOLT-4 leukemia)
8.33 µM: TGI (SR leukemia)
6.76 µM: TGI (M14 melanoma)
33 µM: TGI (OVCAR-5 ovarian)
8.91 µM: TGI (COLO 205 colon)
7.1 µM: TGI (K-562 leukemia)
0.871 µM: TGI (HL-60(TB) leukemia)
11.8 µM: TGI (CAKI-1 renal)
9.43 µM: TGI (RPMI-8226 leukemia)
30.2 µM: TGI (SF-539 CNS)
31.2 µM: TGI (DU-145 prostate)
10.4 µM: TGI (T-47D breast)
10.8 µM: TGI (MDA-N) | TGI (OVCAR-4 ovarian)
26.6 µM: TGI (SNB-75 CNS)
2.8 µM: TGI (MCF7 breast)
15.5 µM: TGI (IGROV1 ovarian)
19.1 µM: TGI (PC-3 prostate)
24.1 µM: TGI (UACC-257 melanoma)
8.12 µM: TGI (SF-268 CNS)
5.13 µM: TGI (HOP-92 NSCLC)
18.2 µM: TGI (OVCAR-3 ovarian)
34.8 µM: TGI (A549 NSCLC)
46.7 µM: TGI (EKVX NSCLC)
11.9 µM: TGI (HCT-116 colon) | TGI (U251 CNS)
5.5 µM: TGI (MDA-MB-231 breast)
23.5 µM: TGI (MALME-3M melanoma)
88.5 µM: TGI (NCI/ADR-RES ovarian)
21 µM: TGI (HOP-62 NSCLC)
33.7 µM: TGI (A498 renal)
22.9 µM: TGI (UO-31 renal)
41 µM: TGI (NCI-H460 lung)
12.7 µM: TGI (SW-620 colon)
20.3 µM: TGI (SK-MEL-5 melanoma)
2.07 µM: TGI (CCRF-CEM leukemia)
16.8 µM: TGI (SK-MEL-28 melanoma)
33.9 µM: TGI (SF-295 CNS)
> 100 µM: TGI (HCT-15 colon)
23 µM: TGI (OVCAR-8 ovarian)
37.4 µM: TGI (HCC-2998 colon)
7.37 µM: TGI (UACC-62 melanoma)
